Eight compounds from PMC2778948, “A Novel Enediynyl Peptide Inhibitor of Furin That Blocks Processing of proPDGF-A, B and proVEGF-C” (PLoS ONE, 2009) can be followed below.

Several values for one entry are separate records, joined by “and”; a condition that tells them apart may be missing. Identical values can stand only once. Like-named read-outs stand apart in the source and are kept apart here.

The target in test [1] is T1, recombinant h (human) furin (Homo sapiens, UniProt P09958).
T1 construct: pure soluble recombinant h (human) furin; purchased New England Biolabs
T1 sequence (P09958 108-715 limits assumed): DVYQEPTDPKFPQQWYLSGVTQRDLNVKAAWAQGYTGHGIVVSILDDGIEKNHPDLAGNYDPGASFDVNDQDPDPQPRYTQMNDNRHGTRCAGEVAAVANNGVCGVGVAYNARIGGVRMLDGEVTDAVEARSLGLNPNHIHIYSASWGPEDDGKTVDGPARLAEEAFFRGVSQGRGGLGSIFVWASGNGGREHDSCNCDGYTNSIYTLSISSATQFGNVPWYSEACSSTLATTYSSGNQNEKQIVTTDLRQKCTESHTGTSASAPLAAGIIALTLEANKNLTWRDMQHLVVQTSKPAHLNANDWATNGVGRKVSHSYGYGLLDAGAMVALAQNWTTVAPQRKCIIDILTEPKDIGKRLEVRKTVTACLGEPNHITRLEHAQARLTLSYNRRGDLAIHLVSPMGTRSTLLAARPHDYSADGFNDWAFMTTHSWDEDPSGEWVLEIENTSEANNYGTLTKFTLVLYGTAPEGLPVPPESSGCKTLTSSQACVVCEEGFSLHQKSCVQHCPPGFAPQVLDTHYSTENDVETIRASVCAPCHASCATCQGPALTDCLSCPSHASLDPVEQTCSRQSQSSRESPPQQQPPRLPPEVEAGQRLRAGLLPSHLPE
Kind of test: In vitro furin assay with Boc-RVRR-MCA (50 µM), aromatic enediyne compounds. To be noted: for inhibition at 100 µM: read-out: Furin inhibition at a single concentration. It counts as biochemical. An excerpt: (§1) Most aromatic enediyne compounds are chemically highly reactive and can easily generate upon heating reactive bis-radical species via Bergman cyclo-aromatization reaction, [32]. It is a possibility that these reactive intermediates may then react with one or more of the catalytic amino acid residues His, Ser or Asp of PC-enzymes leading to chemical modifications of latter. This notion is supported by several studies involving interactions of amino acids either free or within protein sequences [41]–[46]. Based on this rationale we proposed that such types of molecules may therefore inhibit the protease activities of these enzymes. To test this hypothesis, we first synthesized several aromatic enediyne derivatives and examined in vitro their effects on proteolytic activities of three key members of PC-family enzymes namely furin, PC5 and PC7. In vitro enzyme assay of PCs against Boc-RVRR-MCA substrate (50 µM), in the absence and presence of various synthetic aromatic enediyne compounds (Fig. 1) indicated weak to modest inhibitory activities of these compounds. […] This is the first report of PC-inhibitory activity of an enediyne compound. This finding prompted us to the idea of incorporating an enediyne function within a peptide sequence which may enhance the potency and selectivity of furin inhibition. To accomplish this, we designed and synthesized an enediynyl amino acid (Eda) derivative with its amino terminal protected by Fmoc (9H-fluoren-9-ylmethoxy carbonyl) group so that it can be directly used in solid phase peptide synthesis.
Figure 1 List of synthetic aromatic enediyne derivatives and their effects on protease activities of Proprotein Convertases Furin, PC5 and PC7. […] The enzyme assay was carried out by using the fluorogenic peptide substrate Boc-RVRR-MCA (50 µM final concentration) as described in [27]. ND = not determined. TEXT PRINTED IN THE PICTURE: AB-1: MW 438; Furin: 29.9 ± 1.5; PC5: 33% (57 mM); PC7: 30.4 ± 3.5 | AB-2: MW 390; Furin: 10.5 ± 1.8; PC5: 34.5 ± 5.8; PC7: 8.5 ± 1.8 | AB-3: MW 506; Furin: 14.2 ± 1.8; PC5: 17.2± 3.4 | AB-4: MW 258; Furin: 10% at 100 μM | AB-5: MW 259; Furin: 12% at 100 μM | AB-6: MW 780; Furin: 192 ± 6.7 | AB-6-Ni: MW 838; Furin: 160 ± 2.5
While pure soluble recombinant h (human) furin was obtained commercially from New England Biolabs (Boston, Ma, USA), recombinant m (mouse) PC5 and soluble hPC7 were obtained in partially purified form as described earlier.

Test [2] deals with T2, recombinant m (mouse) PC5 (Mus musculus, UniProt Q04592).
T2 construct: made in house
T2 sequence (Q04592 117-1877): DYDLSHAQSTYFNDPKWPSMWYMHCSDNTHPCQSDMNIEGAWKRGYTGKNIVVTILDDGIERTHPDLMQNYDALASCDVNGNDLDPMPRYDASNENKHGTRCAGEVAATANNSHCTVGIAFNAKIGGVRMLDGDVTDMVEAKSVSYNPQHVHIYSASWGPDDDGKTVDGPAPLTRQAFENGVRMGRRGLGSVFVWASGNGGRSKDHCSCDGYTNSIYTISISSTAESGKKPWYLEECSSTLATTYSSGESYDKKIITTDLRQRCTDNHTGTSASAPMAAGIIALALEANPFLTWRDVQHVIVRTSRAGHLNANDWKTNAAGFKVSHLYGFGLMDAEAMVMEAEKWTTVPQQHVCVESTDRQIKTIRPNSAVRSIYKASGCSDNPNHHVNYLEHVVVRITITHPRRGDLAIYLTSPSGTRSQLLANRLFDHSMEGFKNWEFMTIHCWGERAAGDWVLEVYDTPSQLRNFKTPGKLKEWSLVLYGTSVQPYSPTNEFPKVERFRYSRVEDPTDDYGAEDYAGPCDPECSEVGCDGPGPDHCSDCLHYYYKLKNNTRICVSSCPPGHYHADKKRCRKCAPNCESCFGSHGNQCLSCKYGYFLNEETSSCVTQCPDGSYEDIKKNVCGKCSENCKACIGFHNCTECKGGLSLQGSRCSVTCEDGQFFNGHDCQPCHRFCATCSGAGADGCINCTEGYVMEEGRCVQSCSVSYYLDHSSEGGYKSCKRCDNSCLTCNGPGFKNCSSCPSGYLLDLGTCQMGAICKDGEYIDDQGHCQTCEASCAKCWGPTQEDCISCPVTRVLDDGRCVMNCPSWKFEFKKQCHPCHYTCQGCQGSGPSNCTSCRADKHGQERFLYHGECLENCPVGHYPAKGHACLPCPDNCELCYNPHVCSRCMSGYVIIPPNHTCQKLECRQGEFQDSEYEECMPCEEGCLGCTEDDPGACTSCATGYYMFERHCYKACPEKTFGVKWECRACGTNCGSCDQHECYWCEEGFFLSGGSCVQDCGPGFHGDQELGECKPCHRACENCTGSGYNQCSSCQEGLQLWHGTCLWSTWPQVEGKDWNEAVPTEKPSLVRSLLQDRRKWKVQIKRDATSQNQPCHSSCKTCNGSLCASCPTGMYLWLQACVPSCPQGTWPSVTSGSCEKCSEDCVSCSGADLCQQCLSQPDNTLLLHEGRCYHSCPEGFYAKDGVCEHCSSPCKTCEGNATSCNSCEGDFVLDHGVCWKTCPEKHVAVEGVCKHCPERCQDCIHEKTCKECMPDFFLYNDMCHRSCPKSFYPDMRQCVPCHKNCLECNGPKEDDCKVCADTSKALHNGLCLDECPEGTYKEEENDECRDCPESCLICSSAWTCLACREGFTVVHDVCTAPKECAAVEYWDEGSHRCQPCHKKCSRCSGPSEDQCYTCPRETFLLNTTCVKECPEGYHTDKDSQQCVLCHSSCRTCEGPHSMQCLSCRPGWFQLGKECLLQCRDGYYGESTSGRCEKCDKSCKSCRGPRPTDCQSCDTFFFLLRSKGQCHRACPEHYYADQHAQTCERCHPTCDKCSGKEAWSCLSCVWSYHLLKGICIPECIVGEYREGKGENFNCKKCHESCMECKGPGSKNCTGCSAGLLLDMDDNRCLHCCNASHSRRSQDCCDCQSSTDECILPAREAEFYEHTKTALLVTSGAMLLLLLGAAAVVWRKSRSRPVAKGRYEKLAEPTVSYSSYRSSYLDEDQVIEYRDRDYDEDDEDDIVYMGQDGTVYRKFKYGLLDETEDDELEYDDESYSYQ
The experiment in a line: In vitro PC5 assay with Boc-RVRR-MCA (50 µM), aromatic enediyne compounds. It counts as biochemical.
Description: as §1, with “This finding prompted us to the idea of incorporating an enediyne function within a peptide sequence which may enhance the potency and selectivity of furin inhibition. To accomplish this, we designed and synthesized an enediynyl amino acid (Eda) derivative with its amino terminal protected by Fmoc (9H-fluoren-9-ylmethoxy carbonyl) group so that it can be directly used in solid phase peptide synthesis.” left out
(§2) Figure 1 List of synthetic aromatic enediyne derivatives and their effects on protease activities of Proprotein Convertases Furin, PC5 and PC7. […] ND = not determined. […]

The target of a further test is T3, soluble hPC7 (Homo sapiens, UniProt Q16549).
T3 construct: soluble hPC7 were obtained in partially purified form; made in house
T3 sequence (Q16549 142-667 limits assumed): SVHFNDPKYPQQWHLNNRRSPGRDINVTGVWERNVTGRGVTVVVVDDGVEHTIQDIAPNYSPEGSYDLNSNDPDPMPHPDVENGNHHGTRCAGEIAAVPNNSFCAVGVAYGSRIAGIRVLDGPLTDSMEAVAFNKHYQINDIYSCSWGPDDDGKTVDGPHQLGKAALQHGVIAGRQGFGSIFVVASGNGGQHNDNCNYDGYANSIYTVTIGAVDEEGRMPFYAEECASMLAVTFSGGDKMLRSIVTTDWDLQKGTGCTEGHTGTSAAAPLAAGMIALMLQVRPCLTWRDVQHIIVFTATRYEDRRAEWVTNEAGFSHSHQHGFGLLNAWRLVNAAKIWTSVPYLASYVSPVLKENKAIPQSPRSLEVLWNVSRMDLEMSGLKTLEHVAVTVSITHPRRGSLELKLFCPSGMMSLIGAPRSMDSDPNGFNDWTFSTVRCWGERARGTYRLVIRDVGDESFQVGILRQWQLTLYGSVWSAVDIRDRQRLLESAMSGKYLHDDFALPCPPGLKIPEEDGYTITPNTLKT
Kind of test: In vitro PC7 assay with Boc-RVRR-MCA (50 µM), aromatic enediyne compounds. It counts as biochemical.
Description: as §1, with “This finding prompted us to the idea of incorporating an enediyne function within a peptide sequence which may enhance the potency and selectivity of furin inhibition. To accomplish this, we designed and synthesized an enediynyl amino acid (Eda) derivative with its amino terminal protected by Fmoc (9H-fluoren-9-ylmethoxy carbonyl) group so that it can be directly used in solid phase peptide synthesis.” left out
as §2

For test [3], the system named is furin processing of proPDGF-A in CHO cells. Kind of test: Processing of FLAG-tagged proPDGF-A in CHO cells (western blot). It counts as cell-based. The conditions noted are these: 24 h, FLAG antibody western blot. From the text:
(§3) The result was compared in parallel with the commercial furin inhibitor Dec (decanoyl)-RVRR-cmk (chloromethyl ketone) and the 83-mer synthetic full length prodomain protein of hfurin [49]. […] This was reflected by the strong appearance of 22 kDa proPDGF-A band which was completely absent in the control experiment done in parallel without the presence of any inhibitor. […] The effect was compared in parallel with that done with the known furin inhibitor dec-RVRR-cmk.
CHO-cells expressing FLAG-tagged PDGF-A were grown in DMEM medium as described (43) until the cells achieved ∼80% confluency (24 h), At this stage the medium was removed, cells were washed and grown in fresh buffer supplemented with furin-Eda peptide (50 µM final concentration). The media and cells were harvested after another 24 h cell growth. The collected media were concentrated ∼20-fold using centricon filtration system (Amersham Biosciences Inc, cut off MW = 3 kDa) and subjected to western blot analysis using FLAG antibody for the presence of full length proPDGF-A and its C-terminal mature form obtained following cleavage by endogenous furin present in CHO cells. […] For quantitative purpose, each sample was also analyzed for the presence of actin by immunoblot using a specific antibody.
(Immunoblotting shows a protein as a band on a membrane.)

The subject of test [4] is furin-mediated processing of proVEGF-C in CHO cells. The experiment in a line: Processing of proVEGF-C in CHO cells (western blot). To be noted: 50 µM. It counts as cell-based.
Description: as §3
CHO-cells expressing FLAG-labeled proVEGF-C [57] were grown in DMEM medium as described above in the absence and presence of furin-Eda peptide and the furin inhibitor Dec-RVRR-cmk (each 50 µM concentration). The presence of VEGF-C precursor and its C-terminal processed form generated by furin cleavage were assessed by western blot analysis using FLAG antibody while the level of actin (control house keeping protein) was analyzed by immunoblot for quantitation purpose.

The test system of test [5] is furin-mediated processing of pro-PDGF-B in CHO cells. Kind of test: Processing of proPDGF-B in CHO cells (western blot). It counts as cell-based. The conditions noted are these: for Block of processing of 31 kDa pro-PDGF-B to 17 kDa mature form: 0.5 to 15 µM. As to the method:
CHO-cells expressing endogenous proPDGF-B [58] were grown as described above in the absence and presence of various concentrations ranging from 0.5 to 15 µM of either furin-Eda peptide or α1-Pdx, a known furin inhibitor [50]. Western blots were performed for the presence of proPDGF-B and its processed form using PDGF-B specific antibody. In parallel samples were also analyzed for actin levels.

In general, IC50 refers to the point on the concentration scale where inhibition reaches its midpoint. Regarding `C1#Cc2ccccc2C#CCN(Cc2ccccc2)CCN(Cc2ccccc2)C1` [AB-2], the IC50 was 10.5 µM in test [1]; 34 µM and 34.5 µM in test [2] (IC50 for inhibition of PC5, Boc-RVRR-MCA 50 µM final concentration); 8.5 µM at soluble hPC7.

As to `Cc1ccc(S(=O)(=O)N2CC#Cc3ccccc3C#CCN(S(=O)(=O)c3ccc(C)cc3)c3cccc2c3)cc1` [AB-3], the IC50 in test [1] (read-out: IC50 for inhibition of furin, Boc-RVRR-MCA 50 µM final concentration) came out at 14.2 ± 1.8 µM; in test [2] (read-out: IC50 for inhibition of PC5, Boc-RVRR-MCA 50 µM final concentration), 17.2 ± 3.4 µM. For the same compound, at soluble hPC7 (Boc-RVRR-MCA 50 µM), the “Effect on PC7 protease activity” value is recorded as “minor protease activating effect”.

Consider `C1#Cc2ccccc2C#CCNc2cccc(c2)NC1` [AB-4], for which the inhibition at 100 µM in test [1] is 10%.

With `C1#Cc2ccccc2C#CCNc2cccc(n2)NC1` [AB-5], the inhibition at 100 µM in test [1] was 12%.

Consider `C1#Cc2ccccc2C#CCN(Cc2ccccc2)CCN(Cc2ccccc2)CC#Cc2ccccc2C#CCN(Cc2ccccc2)CCN(Cc2ccccc2)C1` [AB-6], for which the IC50 in test [1] was found to be 192 ± 6.7 µM.

On to `CC(C)[C@H](NC(=O)[C@H](CCC(N)=O)NC(=O)[C@@H](N)CCC(N)=O)C(=O)N[C@@H](C)C(=O)N[C@@H](CCCCN)C(=O)N[C@@H](CCCNC(=N)N)C(=O)N[C@@H](CCCNC(=N)N)C(=O)N[C@H](C(=O)N[C@@H](CCCCN)C(=O)N[C@@H](CCCNC(=N)N)C(=O)NCCC#Cc1ccccc1C#CCCC(=O)N[C@@H](CC(=O)O)C(=O)N[C@H](C(=O)N[C@@H](Cc1ccc(O)cc1)C(=O)N[C@@H](CCC(N)=O)C(=O)N[C@@H](CCC(=O)O)C(N)=O)C(C)C)[C@@H](C)O` [furin-Eda-peptide (II)], for which, in test [3] (50 µM), the “Block of cleavage of 22 kDa pro-PDGF-A to 14 kDa mature PDGF-A” value is recorded as “block efficiently”. In test [4], the “Block of cleavage of 50 kDa proVEGF-C to 28 kDa mature VEGF-C” value is “block significantly”. In addition, in test [5], the “Effect on formation of 22 kDa intermediate form of PDGF-B” value is “neither inhibitors displayed any effect” and the “Block of processing of 31 kDa pro-PDGF-B to 17 kDa mature form” value is “block furin-mediated processing”.

For the compound “Dec (decanoyl)-RVRR-cmk (chloromethyl ketone) [Dec-RVRR-cmk, reference compound]”, in test [3] (10 and 50 µM), the “Block of cleavage of 22 kDa pro-PDGF-A to 14 kDa mature PDGF-A” value is recorded as “block efficiently”. In test [4], the “Block of cleavage of 50 kDa proVEGF-C to 28 kDa mature VEGF-C” value is given as “block significantly”.

Turning to “α1-Pdx: bioengineered protein, known potent inhibitor of furin”, in test [5], the “Effect on formation of 22 kDa intermediate form of PDGF-B” value is reported as “neither inhibitors displayed any effect” and the “Block of processing of 31 kDa pro-PDGF-B to 17 kDa mature form” value is on record as “highly comparable”.
